Experimental data from patent US20090291950A1, “BICYCLIC HETEROARYL INHIBITORS OF PDE4” (KALYPSYS, INC., priority 2006, published 2009).

Key:
[1] = test system: dry eye (corneal staining, tear breakup time); assay: Lacrimal gland inflammation-induced dry eye in rabbits; assay type: in vivo; conditions: topical ocular BID, rabbit ConA dry eye
Source text: A more detailed description of the assay used herein may be found in Naglehout, T J et al. 2005, “Preservation of Tear Film Integrity and Inhibition of Corneal Injury by Dexamethasone in a Rabbit Model of Lacrimal Gland Inflammation-Induced Dry Eye,”J. Ocular Pharm. Ther., 21:2. 139-148, the disclosure of which is hereby incorporated by reference as if written herein in its entirety. Rabbits (n=4/group) were randomized into treatment groups and dosed topically BID with maxidex vehicle or test drug beginning one day prior to initiation of dry eye. Each rabbit received bilateral lacrimal gland injections of saline or ConA (300 μg/30 μl) and topical ocular dosing was continued BID throughout the study. Desiccation was initiated 1-2 hours following lacrimal gland injection by placing conscious rabbits in the environmental chamber (10-15% humidity/72° F.). Following 72 consecutive hours of exposure to this dry environment, the animals were anesthetized and sutures were placed in each upper and lower eyelid and lifted to form a corneal/conjunctival cup. Methylene blue dye (1 mL, 1% in dH2O) was added to the cup for three minutes and the excess removed by washing with 200 mL BSS®. The contralateral eye was then stained using the same procedure. Rabbits were euthanized immediately following the staining procedure and the eyes were excised. The corneas were isolated with a trephine and the 9.5-mm punch of the cornea was placed in 2 mL acetone/saturated sodium sulfate (7:3, vol./vol.). Absorbance of the extracted dye was determined at 660 nm. TBUT was quantified in a separate group of treated animals. TBUT was determined by instilling 5 μL sodium fluorescein into the cul de sac and manually blinking the lids to distribute the fluorescein within the tear film. Under slit lamp observation, the eye was held open and the time whereby one or more black spots or streaks appeared in the precorneal tear film was recorded. The rabbits were euthanized 3 days following ConA inj ection.

PDE4B = molecular target: T1, PDE4B (Homo sapiens, UniProt Q07343); assay: coupled PDE/AK bioluminescent assay; assay type: biochemical; conditions: catalytic domain of PDE4B
T1 construct: hexahistidine (His6) (N); made in house
T1 sequence (Q07343 330-659 limits assumed, species assumed): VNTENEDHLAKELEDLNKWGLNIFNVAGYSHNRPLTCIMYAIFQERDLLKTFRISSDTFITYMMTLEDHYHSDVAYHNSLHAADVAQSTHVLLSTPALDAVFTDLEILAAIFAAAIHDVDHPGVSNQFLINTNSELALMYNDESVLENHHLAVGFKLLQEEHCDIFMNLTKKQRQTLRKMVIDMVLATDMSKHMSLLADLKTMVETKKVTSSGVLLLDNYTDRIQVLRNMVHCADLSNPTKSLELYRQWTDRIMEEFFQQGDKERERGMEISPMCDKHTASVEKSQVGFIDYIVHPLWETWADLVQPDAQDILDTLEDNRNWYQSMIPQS
Source text: Phosphodiesterases regulate the activity of the second messenger cyclic adenosine monophosphate (cAMP) by hydrolyzing cAMP to adenosine monophosphate (AMP). We developed a novel coupled PDE/AK bioluminescent high-throughput assay to measure the activity of phosphodiesterases. In the PDE/AK assay, the AMP produced from the hydrolysis of cAMP by phosphodiesterase is converted to adenosine diphosphate (ADP) by the phosphotransferase activity of adenylate kinase (also known as ADK or myokinase). Adenylate kinase will catalyze the conversion of 1 mole of AMP and 1 mole of ATP into 2 moles of ADP. Thus the conversion of AMP to ADP will result in the subsequent loss of ATP. The decrease in ATP concentration can be monitored as light output using luciferase in a reaction that requires ATP to produce light. The PDE/AK assay uses luciferase, which catalyzes the production of light from ATP present in the reaction mix. The amount of emitted light is inversely proportional to the level of AMP present in the reaction. Test compounds are incubated with the phosphodiesterases and phosphodiesterase inhibitors will decrease the rate of cAMP hydrolysis and decrease the subsequent production of AMP. Thus phosphodiesterase inhibitors will decrease the conversion of ATP to ADP and result in the greatest emission of light.
Compounds may be screened for functional potency in in vitro biochemical assays for their ability to inhibit the activity of phosphodiesterase (PDE) enzymes. A novel coupled PDE/AK assay was utilized to measure the inhibitory activity of compounds on PDE isoforms. The catalytic domain of PDE4B was fused to an amino-terminus hex-histidine affinity tag and purified. PDE4B enzyme was incubated with compounds for 10 minutes. Cyclic AMP substrate, ATP and adenylate kinase were then added to the PDE enzyme mix and incubated for 45 minutes at room temperature. A commercial ATP detection assay, Perkin Elmer's easyLite ATP detection reagent, was then added to measure the relative amount of ATP present in the reaction. After 10 minute incubation, the luminescent signal was quantitated with either the Perkin Elmer Viewlux or Molecular Devices Acquest or Analyst. Roflumilast and Rolipram are the positive controls used in the assay.
The PDE/AK assay can be performed with any cAMP dependent phosphodiesterase, and can be performed in 96-, 384-, or 1536-well plates. […] Specifically, the use of radioactive substrates in a phosphodiesterase activity assay requires special protocols for handling and waste disposal, and reduced throughput. Modified substrates add the additional complexity of potentially altering the binding to the phosphodiesterase catalytic site. Fluorescently modified substrates may cause fluorescence artifacts that may interfere in the interpretation of assay results. The use of beads that selectively bind to either the cAMP or AMP may cause an additional complexity in reagent handling. The use of antibodies that selectively bind to either cAMP or AMP can be extremely costly with a relatively small signal to noise ratio. Therefore, the novel PDE/AK assay represents a simple, cost-effective alternative to known methods.

[2] = 1 × 10^−2 percent concentration
[3] = 1 × 10^−4 percent concentration
[4] = 1 × 10^−6 percent concentration

Compound	Activity at Percent Concentration Tested [1, 2]	Activity at Percent Concentration Tested [1, 3]	Activity at Percent Concentration Tested [1, 4]	IC50 (PDE4B)
COc1ccc2c(Nc3c(Cl)cncc3Cl)cc(OCCN(C)C)nc2c1OCC1CC1 [Example 30, 8-(Cyclopropylmethoxy)-N-(3,5-dichloropyridin-4-yl)-2-(2-(dimethylamino)ethoxy)-7-methoxyquinolin-4-amine]	Inactive	Inactive	Inactive	≤ 1000 nM
COc1ccc2c(Nc3c(Cl)cncc3Cl)cc(N)nc2c1OC1CCCC1 [Example 23, 8-(Cyclopentyloxy)-N4-(3,5-dichloropyridin-4-yl)-7-methoxyquinoline-2,4-diamine]	Inactive	Inactive	Inactive	≤ 1000 nM
